Assay results published in publication PMC3433276 (Bioorganic & medicinal chemistry letters, 2012).

Key:
[1] = test system: panel of multidrug-resistant HIV-1 strains; assay: microbe, parasite or virus in culture; type: cell-based; conditions: for fold-changes in EC50: against all MDR HIV-1 viruses compared to wild type
HIV-1LAI = assay: Antiviral MTT assay in MT-2 cells exposed to HIV-1LAI; type: cell-based; conditions: Human immunodeficiency virus 1, MT2

IC50 (HIV-1LAI) [nM] | Structure (SMILES) | EC50 ([1]; Human immunodeficiency virus 1) [nM] | fold-changes in EC50 [1]
 | COC(=O)N[C@H]1CO[C@@H]2C[C@H](OC(=O)N[C@@H](Cc3ccccc3)[C@H](O)CN(CC(C)C)S(=O)(=O)c3ccc(OC)cc3)C[C@H]12 [Inhibitor 3d] | 15 to 24 | increased by a factor of at least three
30 | CC(C)CN(C[C@@H](O)[C@H](Cc1ccccc1)NC(=O)O[C@H]1CCOC1)S(=O)(=O)c1ccc(N)cc1 [amprenavir] |  | 
 | COC(=O)N[C@@H]1CO[C@@H]2C[C@H](OC(=O)N[C@@H](Cc3ccccc3)[C@H](O)CN(CC(C)C)S(=O)(=O)c3ccc(OC)cc3)C[C@H]12 [Inhibitor 3c] |  | < 3
